Test results taken from patent publication US6958156B2, “Isoflavone derivatives” (Vyrex Corporation, priority 2000, dated 2005).

Tests used:
[1] = tested on: alkaline phosphatase type VII-S; experiment: Hydrolysis by alkaline phosphatase type VII-S; assay type: biochemical, bovine; conditions: 37° C., 0.5 DEA units in 1.0 ml 0.1M glycine buffer pH 10.4, initial substrate 1.07 mM
Description: (§1) In each of these experiments, free genistein was extracted with a 1:1 mixture of ethyl acetate and hexane, then analyzed by HPLC under the conditions described in example 5.
d) In alkaline phosphatase type VII-S at 37° C., the initial rate of hydrolysis to free genistein was 0.08% per minute.
This enzyme from bovine intestinal mucosa (Sigma cat no. P5521). 0.5 DEA units were dissolved in 1.0 ml of 0.1M glycine buffer pH 10.4, and the initial substrate concentration was 1.07 mM.

[2] = Hydrolysis of genistein-7-phosphate to free genistein in human serum; assay type: in vitro ADME; conditions: 37° C.
Description: as §1
a) In human serum (Sierra Biologicals) at 37° C., the half-life for hydrolysis to free genistein was about 5 hours.

[3] = target: alkaline phosphatase type XXIV (Homo sapiens, UniProt P05187); experiment: Hydrolysis by alkaline phosphatase type XXIV; assay type: biochemical; conditions: 37° C.
alkaline phosphatase type XXIV, sequence (P05187 23-506): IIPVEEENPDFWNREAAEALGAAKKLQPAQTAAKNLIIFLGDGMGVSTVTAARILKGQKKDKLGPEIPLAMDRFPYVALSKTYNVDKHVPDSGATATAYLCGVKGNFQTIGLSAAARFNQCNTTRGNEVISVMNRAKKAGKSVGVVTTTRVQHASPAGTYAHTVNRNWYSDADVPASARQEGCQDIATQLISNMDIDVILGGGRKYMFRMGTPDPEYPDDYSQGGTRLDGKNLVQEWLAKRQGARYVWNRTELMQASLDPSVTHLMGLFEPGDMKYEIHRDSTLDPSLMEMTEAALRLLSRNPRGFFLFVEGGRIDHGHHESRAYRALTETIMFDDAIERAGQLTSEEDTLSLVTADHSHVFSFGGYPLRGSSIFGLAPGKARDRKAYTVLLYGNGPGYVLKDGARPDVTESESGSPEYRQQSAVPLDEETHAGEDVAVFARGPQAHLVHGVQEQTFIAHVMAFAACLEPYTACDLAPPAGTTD
Description: as §1
e) In alkaline phosphatase type XXIV at 37° C., the initial rate of hydrolysis to free genistein was 0.05% per minute.

[4] = Hydrolysis of genistein-7-phosphate to free genistein in rat blood; assay type: in vitro ADME; conditions: 37° C.
Description: as §1
c) In rat blood (Sierra Biologicals) at 37° C., the half-life for hydrolysis to free genistein was about 30 minutes.

[5] = Non-enzymatic hydrolysis of genistein esters in aqueous buffer (HPLC); assay type: physicochemical; conditions: phosphate-buffered saline (0.1 M), pH 7.4, 37°, 10 days
Description: By way of example, and not of limitation, several embodiments of the inventive subject matter have been prepared and characterized. These examples all fall within the group of pro-compounds where at least one of R7, R6, R5 and R4′ is H2PO4—, and HOOC—(CH2)x-COO— where x=2, 3, or 4. These new phosphate esters and hemiesters are all water soluble and readily hydrolyzed. They are also stable. In aqueous solutions of the exemplified compounds, for example, hydrolysis occurs to the extent of less than 1% per day, when stored at pH 7.4 and 37° C. Dry formulations of the same compounds appear to be indefinitely stable.
HPLC analysis was conducted using a Partisil ODS-3 column (9.5×250 mm), with methanol as the mobile phase, and UV detection at 260 nm.
A solution of genistein-7-phosphate (2.5 mg) in 5 ml of phosphate-buffered saline (0.1 M) at pH 7.4 was incubated at 37° for 10 days.
A solution of genistein-7-hemisuccinate (2.5 mg) in 5 ml of phosphate-buffered saline (0.1 M) at pH 7.4 was incubated at 37° for 10 days.

[6] = Hydrolysis of genistein-7-phosphate to free genistein in human blood; assay type: in vitro ADME; conditions: 37° C.
Description: as §1
b) In human blood (Sierra Biologicals) at 37° C., the half-life for hydrolysis to free genistein was about 6 hours.

[7] = Merck Index descriptions; cited from earlier work

Q: Which “initial rate of hydrolysis to free genistein” value [1] does the source give for `O=c1c(-c2ccc(O)cc2)coc2cc(OP(=O)(O)O)cc(O)c12` [genistein-7-phosphate, Genistein-7-Phosphate] here?
A: 0.08 % per minute

Q: What about the half-life [2] of the same molecule?
A: ~300 min

Q: And the “initial rate of hydrolysis to free genistein” value [3]?
A: 0.05 % per minute

Q: And the half-life [4]?
A: ~30 min

Q: And the “free genistein found by HPLC after incubation” value [5]?
A: absence of free genistein

Q: What about the half-life [6] of the same molecule?
A: ~360 min

Q: With `O=C(O)CCC(=O)Oc1cc(O)c2c(=O)c(-c3ccc(O)cc3)coc2c1` [genistein-7-hemisuccinate, Genistein-7-Hemisuccinate] as the molecule, how does the “conversion of the ester to free genistein” value [5] read?
A: about 4%

Q: With `O=c1c(-c2ccc(O)cc2)coc2cc(O)cc(O)c12` [genistein] as the molecule, how does the solubility in water [7] read?
A: very insoluble
